The results in this text go back to patent US9839622B2, “Methods of treating hypothalamic obesity” (Zafgen, Inc., priority 2012, dated 2017).

Assay [1] is described as follows: Mouse model of hypothalamic injury (gold thioglucose). It is filed as in vivo, C57/BL6 mice. The note with it: 0.1 mg/kg daily subcutaneous. On the procedure: FIG. 1 depicts body weight change (percent) of C57/BL6 mice treated with single dose of 0.5 g/kg gold thioglucose, and after 40 days, started on 0.1 mg/kg daily subcutaneous dose of 6-O-(4-dimethylaminoethoxy)cinnamoyl fumagillol (ZGN-440). FIG. 2 depicts normalized food intake in GTG mice to the level of normal mice that were not treated with gold thioglucose, after 0.1 mg/kg daily subcutaneous dose of 6-O-(4-dimethylaminoethoxy)cinnamoyl fumagillol. Gold thioglucose (GTG) is a chemical treatment used as a model of hypothalamic injury. C57/BL6 mice were treated with single dose of 0.5 g/kg gold thioglucose. After 40 days a cohort was started on 0.1 mg/kg daily subcutaneous dose of 6-O-(4-dimethylaminoethoxy)cinnamoyl fumagillol (ZGN-440). […] (FIG. 1). The food intake level of GTG treated mice was increased to over 3 g/day/mouse, where in GTG mice treated with ZGN-440 the food intake decreased to the level of normal mice that were not treated with gold thioglucose (below 3 g/day). (FIG. 2).

A short description of assay [2]: Treatment of obese humans also taking anti-depressants known to cause hypothalamic obesity. The note with it: obese humans on anti-depressants, average dose 1.44 mg twice weekly subcutaneous. Type of assay: in vivo, human. On the procedure:
FIG. 3 depicts percentage reduction in body weight by up to seven weeks of treatment with 6-O-(4-dimethylaminoethoxy)cinnamoyl fumagillol (ZGN-440; average dose of 1.44 mg administered twice weekly by subcutaneous administration, n=5) or placebo (administered twice weekly by subcutaneous administration, n=2) in obese human patients treated otherwise for depression with mirtazapine, sertraline, imipramine, paroxetine, or amitryptyline.
Five of these patients were also administered ZGN-440 (average dose of 1.44 mg, administered twice weekly by subcutaneous administration). On average, patients lost 5.4 percent of their baseline body weight over the seven week treatment. […] At baseline, the average (±SEM) body weight was 100.2±3.2 kg, and the average body mass index was 38.8±1.7 kg/m^2. […] (FIG. 3).

On to `CO[C@@H]1[C@H](OC(=O)/C=C/c2ccc(OCCN(C)C)cc2)CC[C@]2(CO2)[C@H]1[C@@]1(C)O[C@@H]1CC=C(C)C` [ZGN-440, 6-O-(4-dimethylaminoethoxy)cinnamoyl fumagillol], for which the body weight change result in assay [1] (GTG (0.5 g/kg single dose) C57/BL6 mice, started after 40 days, FIG. 1) was “Significant weight loss”. The food intake entry in assay [1] (GTG mice, untreated GTG mice over 3 g/day/mouse, FIG. 2) was “below 3 g/day”. For the same compound, in assay [2] (n=5, seven week treatment, FIG. 3), the “loss of baseline body weight (average)” value was found to be 5.4%. Moreover, the “weight loss vs. placebo (percent change of body weight from baseline, Student's t test)” value in assay [2] (up to seven weeks, placebo failed to lose weight) is “statistically significant”.
